{"source": "paper PMC7913927", "about": "“Leishmanicidal Activity of Betulin Derivatives in Leishmania amazonensis; Effect on Plasma and Mitochondrial Membrane Potential, and Macrophage Nitric Oxide and Superoxide Production” (Microorganisms, 2021)", "tested_on": "J774.1 macrophages, healthy or infected with LTB0016, VE98MR or VE2000MM", "test": "Superoxide (O2−) production, ferricytochrome c reduction", "assay_type": "cell-based, murine", "conditions": "LTB0016- and VE98MR-infected macrophages; 48 h; 18: 1 and 2 µM", "method": "The intracellular oxidative burst was evaluated by the production of the superoxide anion O2^−, using the method of reduction of ferricytochrome c, previously described. Macrophages from preceding experiments were used after removing the supernatant; the cells pretreated with compounds or AmB as positive control of the experiment were resuspended in 100 µL of Hanks saline (HBSS: 137 mM NaCl, 5.4 mM KCl, 1 mM MgSO4⋅7H2O, 1.3 mM CaCl2⋅H2O, 0.3 mM Na2HPO4, 0.44 mM KH2PO4, 4.2 mM NaHCO3, 5 mM glucose, pH 7.2) and incubated for 1 h in the presence of 2 mg mL^−1 (160 µM) of cytochrome c type III, at 37 °C and 5% CO2. The supernatant was saved to measure the change in optical density at 550 nm. Three independent experiments were performed in duplicate. The superoxide anion concentration was calculated using the reduced molar extinction coefficient of cytochrome c, 21 mM^−1 cm^−1. Therefore, [O2^−] = (ΔOD/6.3) × 100, where ΔOD is the variation of the optical density (reading-blank), and the result obtained corresponds to the concentration of superoxide anion expressed in nanomoles of O2^− released/2 × 10^5 cells. MLF (5 µM) and amphotericin-B (AmB, 0.1 µM), known to induce NO production in macrophages, were included as controls.", "note": "“Also recorded” adds a separate entry of the source.", "data": [{"smiles": "C=C(C)C1CCC2(C=NO)CCC3(C)C(CCC4C5(C)CCC(=NO)C(C)(C)C5CCC43C)C12", "note": "(stereo not shown) [Compound 18]", "values": [{"measurement": "Superoxide production, infected macrophages", "result": "induced superoxide production in infected macrophages; also recorded: inducing an oxidative burst and thus increasing O2^− production"}]}]}
